The results in this text go back to publication PMC11134387, “Cancer-Stem-Cell Phenotype-Guided Discovery of a Microbiota-Inspired Synthetic Compound Targeting NPM1 for Leukemia” (JACS Au, 2024).

For data set [1], the system named is HCT-116-derived colonospheres. The experiment in a line: Formation of HCT-116-derived colonospheres (CSC tumorspheres). Type of data set: cell-based. As to conditions: Homo sapiens, HCT-116; @5 µM (footnote d); read-out: Inhibition of tumorsphere formation (%) HCT-116. As for the experimental part:
(§1) (BD Biosciences, Franklin Lakes, NJ, USA). All cells were maintained at 37 °C in a humidified incubator in an atmosphere of 5% CO2, and passaged every 2–3 days.
(§2) Additionally, they were cultured using RPMI media (Gibco/Life Technologies; Grand […]
(§3) Colonospheres, mamospheres and colony formation unit assays. 30.000 cells per well of MCF-7 cells (mamos pheres), HCT-116 cells (colonospheres) and CD34+ cells from patients (colony formation units) were seeded in serum free non- adherent medium or […]
(§4) MethoCult (Stem Cell). […]

In data set [2] the test system is primary HSCs from WT NPM1 AML patients. The experiment in a line: CD34+ liquid HSC short-term culture, WT NPM1 AML patients. Type of data set: cell-based. As to conditions: Homo sapiens, n = 3. On the procedure: (§5) Considering the inhibitory capacity of UCM-13369 on AML cell lines (shown in Figure 3A), the therapeutic potential was assessed in primary CD34+ cells from AML patients. Two ex vivo models were used from AML patients and healthy donors: CD34+ liquid HSC (hematopoietic stem cell) culture as a short-term model and CFU-E (colony-forming unit–erythroid) as a midterm model.
(§6) The test compound was diluted in PBS. […]
Primary cells. 1x10^6/mL total mononuclear bone marrow cells (as source of CD34+ HSCs) of healthy donors and AML patients were used. They were cultured using Stem SpanTM supplement with pencillin/streptomycin (500 U/ml), TPO (10 µg/mL), SCF (10 µg/mL), FLT3 (10 µg/mL), IL-6 (10 µg/mL) and IL-3 (10 µg/mL). After 24 h fresh medium was added. After 72 h in maintenance cells were ready to start the assays. All cells wer e maintained at 37 °C in a humidified incubator in an atmosphere of 5% CO2. […]

Another data set concerns OCI-AML3 (NPM1 C+). The experiment in a line: Cell viability dose-response in AML cell line (NPM1 C+). It is filed as cell-based. As to conditions: Homo sapiens, OCI-AML-3; OCI-AML3, 48 h. An excerpt:
One of the most paradigmatic diseases with critical involvement of CSCs is AML. Among the AML stem cell population, CD34+/CD38- are the only ones capable of inducing leukemia in vivo.[27] […] We focused on proteins that disappeared completely after treatment with the compound and whose concentration could be quantified in untreated samples. According to this profile, 340 proteins, including targets related with stemness and cancer, were identified (see Supplementary Excel file). Among them, nucleophosmin 1 (NPM1) especially attracted our attention, as it is one of the most common mutated proteins in AML.[28] To support that the inhibitory capacity of UCM-13369 observed in CSC cells (see Table S1) is mediated by NPM1, the compound was tested on OCI-AML3 and MOLM13 cell lines, as in vitro AML models bearing mutant (NPM1 C+) and wild-type (WT) protein, respectively.
The test compound was diluted in PBS.

In data set [3] the test system is primary CD34+ cells from healthy donors. The experiment in a line: CFU-E colony-forming unit assay, healthy donors. It is filed as cell-based. The settings on record: Homo sapiens. As for the experimental part:
as §5, §6
Primary cells. 1x10^6/mL total mononuclear bone marrow cells (as source of CD34+ HSCs) of healthy donors and AML patients were used. They were cultured using Stem SpanTM supplement with pencillin/streptomycin (500 U/ml), TPO (10 µg/mL), SCF (10 µg/mL), FLT3 (10 µg/mL), IL-6 (10 µg/mL) and IL-3 (10 µg/mL). After 24 h fresh medium was added. After 72 h in maintenance cells were ready to start the assays. All cells wer e maintained at 37 °C in a humidified incubator in an atmosphere of 5% CO2.
as §3, §4

In the next data set the test system is HCT-116. Kind of data set: Cytotoxic effect in colon tumor cell line (MTT). As to conditions: Homo sapiens, HCT-116, read-out: Viability (%) HCT-116, @5 µM (footnote d).
Data set [4] relates to MCF-7-derived mamospheres. The experiment in a line: Formation of MCF-7-derived mamospheres (CSC tumorspheres). It is filed as cell-based. On the procedure:
as §1, §2, §3, §4

The nature of data set [5]: Caspase-3 pathology analysis of treated mice. Type of data set: in vivo. On the procedure:
Based on the encouraging results obtained in ex vivo models of AML, we further assessed the therapeutic potential of the new NPM1 inhibitor in vivo. Prior to the evaluation of the compound in an animal model of AML, in vivo pharmacokinetic studies were addressed. Following a single intraperitoneal administration of UCM-13369 at a dose of 25 mg/kg, levels of 200–600 μg/L were detected in mouse peripheral blood up to 6 h (Figure 6A). Plasma protein binding of the compound in mouse serum was measured using an equilibrium dialysis assay, indicating a bound fraction of 83 ± 1%. Next, the efficacy of the compound was evaluated in immunodeficient mice after injection of OCI-AML3-ffLuc-GFP cells as an AML animal model. […]
(D) IHC analysis of a poptotic cells in a representative kidney
sample from OC I-AML 3 xenograft mice treat ed with DMSO (vehicle, top) vs . UCM-
13369 treated mice (50 mg/kg, bottom) mice: H&E ( left) and cleav ed caspase- 3 (right).
(§7) Scale bar: 100 μm. (E ) Dose-response curve of UCM-13369 in human renal proximal

The subject of data set [6] is human renal proximal tubule epithelial cells (hRPT Epi Cells). Kind of data set: Dose-response viability in renal proximal tubule epithelial cells. It is filed as cell-based. As to conditions: dose-response viability assay; listed as UCM-13369.
Text: as §7

Each structure is given as a SMILES string. Entries after “also recorded” stand apart in the source; their conditions may differ.

For the molecule `COc1ccc(C2Cc3[nH]c4ccccc4c3C(CCNCC3CC3)C2N)cc1` (stereo not shown) [4b, 4-{2-[(Cyclopropylmethyl)amino]ethyl}-2-(4-methoxyphenyl)-2,3,4,9-tetrahydro-1H-carbazol-3-amine], the inhibition at 5 µM stood at 100% in data set [1] and 100% in data set [4] (Homo sapiens, MCF7, @5 µM (footnote d), read-out: Inhibition of tumorsphere formation (%) MCF-7). Also, the IC50 in data set [2] is 3.77 µM; in the data set with OCI-AML3 (NPM1 C+), 7.26 µM; in data set [3] it was 1.73 µM. In addition, the viability at 5 µM with HCT-116 was determined as 70%. For the same molecule, in data set [4] (MCF-7 mamospheres and HCT-116 colonospheres, noncytotoxic concentration), the “Formation of tumorspheres (in words)” value was “completely inhibit”. Also, in data set [5] (50 mg/kg), the “Caspase-3 cleavage in kidney (in words)” value is “some caspase-3 cleavage”. For the same molecule, the “Toxicity in bone marrow and liver, caspase-3 pathology (in words)” value in data set [5] (data not shown) is “absence of toxicity”. In addition, in data set [6], the “Toxicity in hRPT Epi Cells (in words)” value is reported as “showed toxicity in kidney cells; also recorded: revealed toxicity”.
